From patent publication US5026910A, “Polyfluoroalkyl nitrogen compounds, processes for their preparation and their use” (Societe Atochem, priority 1989, dated 1991)

How the values were obtained:
[1] = surface tension of aqueous solution (0.1%); type: physicochemical; conditions: for surface tension: aqueous solution containing 0.1%; for γs (surface tension): aqueous solution at a concentration of 0.1%
Procedure: (§1) The surface tension of an aqueous solution containing 0.1% of this salt is 19.2 mN m^-1 at 25° C. The interfacial tension of an aqueous solution containing 0.1% of this salt, in equilibrium with cyclohexane, is 5.8 mN m^-1 at 25° C.
(§2) The surface tension of an aqueous solution containing 0.1% of this salt is 15.5 mN m^-1 at 25° C. The interfacial tension of an aqueous solution containing 0.1% of this salt, in equilibrium with cyclohexane, is 6.4 mN m.-1 at 25° C.
This yields the corresponding quaternary salts of formula: [drawing 19] which are colorless or slightly orange-colored pastes. These salts are completely water-soluble. Their yield and the surface tension at 25° C. of an aqueous solution at a concentration of 0.1% are shown in the second and third columns of Table 5.
(§3) The surface tension Ys and interfacial tension Yi (relative to cyclohexane)of the ammonium salt in question, which are measured at 25° C. in aqueous solution at a concentration of 0.1%, are shown in the fourth and fifth columns of Table 6, the third column showing the yield.
(§4) The surface tension of an aqueous solution containing 0.1% of this salt is 15.5 mN m^-1 at 25° C. The interfacial tension in relation to cyclohexane in the same conditions is 5.5 mN m^-1 .
(§5) By proceeding in the same manner starting with 1,3-dibromopropane, the double quaternary salt of formula: [drawing 24] is obtained in a 98% yield. The surface tension of an aqueous solution containing 0.1% of this salt is 16.4 mN m^-1 at 25° C. The interfacial tension relative to cyclohexane in the same conditions is 7.7 mN m^1.
The surface tension of an aqueous solution containing 0.1% of this N-oxide at 25° C. is 16.3 mN m^-1
The surface tension of an aqueous solution containing 1 0.1% of this betaine is 16.2 mN m^-1.

[2] = interfacial tension of aqueous solution (0.1%) relative to cyclohexane; type: physicochemical; conditions: 25° C.; for γi (interfacial tension relative to cyclohexane): Table 6, aqueous solution at a concentration of 0.1%
Procedure: as §1, §2, §3, §4, §5

[3] = aqueous solution containing 0.1%, cyclohexane

Row | SMILES | γs (surface tension) ([1]; Table 6, 25° C.) [mN m^-1] | γi (interfacial tension relative to cyclohexane) ([2]; cyclohexane) [mN m^-1] | other results
1 | C[N+](C)(C)CCNC(=S)NCCC(F)(F)C(F)(F)C(F)(F)C(F)(F)C(F)(F)C(F)(F)C(F)(F)C(F)(F)F | – | – | surface tension ([1]; 25° C.): 15.5 mN m^-1; interfacial tension in equilibrium with cyclohexane [2, 3]: 6.4 mN m.-1
2 | C=CC[N+](C)(C)CCNC(=S)NCCC(F)(F)C(F)(F)C(F)(F)C(F)(F)C(F)(F)C(F)(F)F [CH2CHCH2Br] | – | – | γs (surface tension) ([1]; Table 5, 25° C.): 16.4 mN m^-1
3 | CCCCCCCCCCCCCCCC[N+](C)(C)CCNC(=S)NCCC(F)(F)C(F)(F)C(F)(F)C(F)(F)C(F)(F)C(F)(F)F [C6 F13 / C16 H33] | 20.3 | 0.7 | –
4 | C[N+](C)(C)CCNC(=S)NCCC(F)(F)C(F)(F)C(F)(F)C(F)(F)C(F)(F)C(F)(F)F | – | – | surface tension ([1]; 25° C.): 19.2 mN m^-1; interfacial tension in equilibrium with / relative to cyclohexane [2, 3]: 5.8 mN m^-1
5 | CCCCCCCCCCCC[N+](C)(C)CCNC(=S)NCCC(F)(F)C(F)(F)C(F)(F)C(F)(F)F [C4 F9 / C12 H25] | 23.1 | 1.9 | –
6 | C[N+](C)(CCNC(=S)NCCC(F)(F)C(F)(F)C(F)(F)C(F)(F)C(F)(F)C(F)(F)F)CC(=O)[O-] | – | – | surface tension ([1]; temperature not given): 16.2 mN m^-1
7 | C[N+](C)(CCO)CCNC(=S)NCCC(F)(F)C(F)(F)C(F)(F)C(F)(F)C(F)(F)C(F)(F)F [HOC2 H4Br] | – | – | γs (surface tension) ([1]; Table 5, 25° C.): 15.4 mN m^-1
8 | C[N+](C)(CCNC(=S)NCCC(F)(F)C(F)(F)C(F)(F)C(F)(F)C(F)(F)C(F)(F)F)CC[N+](C)(C)CCNC(=S)NCCC(F)(F)C(F)(F)C(F)(F)C(F)(F)C(F)(F)C(F)(F)F | – | – | surface tension ([1]; 25° C.): 15.5 mN m^-1; interfacial tension in equilibrium with / relative to cyclohexane [2, 3]: 5.5 mN m^-1
9 | C[N+](C)(CCNC(=S)NCCC(F)(F)C(F)(F)C(F)(F)C(F)(F)C(F)(F)C(F)(F)F)Cc1ccccc1 | – | – | γs (surface tension) ([1]; Table 5, 25° C.): 17.4 mN m^-1
10 | CCCCC[N+](C)(C)CCNC(=S)NCCC(F)(F)C(F)(F)C(F)(F)C(F)(F)C(F)(F)C(F)(F)C(F)(F)C(F)(F)F [C8 F17 / C5 H11] | 16 | 2 | –
11 | CCCCCCCCCCCCCCCC[N+](C)(C)CCNC(=S)NCCC(F)(F)C(F)(F)C(F)(F)C(F)(F)F [C4 F9 / C16 H33] | 26.8 | 2.1 | –
12 | C[N+](C)([O-])CCNC(=S)NCCC(F)(F)C(F)(F)C(F)(F)C(F)(F)C(F)(F)C(F)(F)F | – | – | surface tension ([1]; 25° C.): 16.3 mN m^-1
13 | C[N+](C)(CCC[N+](C)(C)CCNC(=S)NCCC(F)(F)C(F)(F)C(F)(F)C(F)(F)C(F)(F)C(F)(F)F)CCNC(=S)NCCC(F)(F)C(F)(F)C(F)(F)C(F)(F)C(F)(F)C(F)(F)F | – | – | surface tension ([1]; 25° C.): 16.4 mN m^-1; interfacial tension relative to cyclohexane ([2]; in the same conditions: aqueous solution containing 0.1%): 7.7 mN m^1
14 | CCCCCCCCCCCC[N+](C)(C)CCNC(=S)NCCC(F)(F)C(F)(F)C(F)(F)C(F)(F)C(F)(F)C(F)(F)C(F)(F)C(F)(F)F [C8 F17 / C12 H25] | 15.2 | 2.2 | –
15 | CCCCCCCC[N+](C)(C)CCNC(=S)NCCC(F)(F)C(F)(F)C(F)(F)C(F)(F)F [C4 F9 / C8 H17] | 19.7 | 0.7 | –
16 | CCCCCCCC[N+](C)(C)CCNC(=S)NCCC(F)(F)C(F)(F)C(F)(F)C(F)(F)C(F)(F)C(F)(F)F [C6 F13 / C8 H17] | 15.9 | 1.4 | –
17 | CCCCCCCC[N+](C)(C)CCNC(=S)NCCC(F)(F)C(F)(F)C(F)(F)C(F)(F)C(F)(F)C(F)(F)C(F)(F)C(F)(F)F [C8 F17 / C8 H17] | 15.9 | 3.2 | –
18 | CCCCCCCCCCCC[N+](C)(C)CCNC(=S)NCCC(F)(F)C(F)(F)C(F)(F)C(F)(F)C(F)(F)C(F)(F)F [C6 F13 / C12 H25] | 17.5 | 0.8 | –
